Test results from patent US9457063B2, “Method for treatment of diabetic vascular leakage-induced disease using C-peptide” (KANGWON NATIONAL UNIVERSITY UNIVERSITY-INDUSTRY COOPERATION …, priority 2012, dated 2016).
“And” between values parts separate entries of the source, which are not always exact repeats. Equal values may be shown once.

Experiments:
[1] = system: retinas of streptozotocin diabetic mice; assay: Retinal vascular leakage in streptozotocin diabetic mice (FITC-dextran fluorescein angiography); format: in vivo; conditions: for retinal microvascular leakage (extravasation of FITC-dextran) in diabetic mice: intravitreal injection, VEGF antibody 100 μg/ml, N-acetyl-cysteine 81.5 mg/ml, Trolox 125 μg/ml, 2 μl C-peptide, 24 hrs post-injection, n=6, p<0.01
Description: Diabetic mice were generated by a single intraperitoneal injection of streptozotocin (150 mg/kg body weight) freshly prepared in 100 mM citrate buffer (pH 4.5). All mice were supplied with 10% sucrose overnight. Sufficient hyperglycemia was observed 2 days post-injection, as measured by the ACCU-CHEK® Active blood glucose monitor (Roche Diagnostics, Germany). One week after the streptozotocin injection, mice with non-fasting blood glucose levels greater than 16 mM, polyuria, and glucosuria were defined as diabetic and used for the experiments.
The diabetic mice were intravitreally injected with 2 μl of C-peptide (3.7 μg/ml) in PBS into one eye, and an equal volume of PBS was injected into the contralateral eye (n=6 per group). Normal (non-diabetic) mice were also intravitreally injected with 2 μl of PBS into eyes (Normal; n=6 per group). C-peptide concentrations in the vitreous chamber were maintained within the physiological range (0.9 to 2.0 nM) for 12 hrs after intravitreal injection.
After 24 hrs post injection, retina leakage was quantified using fluorescein angiography. In this regard, mice were injected with 1.25 mg of 500-kDa FITC-dextran (Sigma-Aldrich) into the left ventricle and the dye was allowed to circulate for 5 min. Eyes were enucleated and immediately fixed with 4% paraformaldehyde for 45 min. Retinas were dissected, cut in the Maltese cross-configuration, and flat-mounted onto slide glass. Retinas were observed using the confocal microscope. Retina leakage was quantitatively analyzed by determining the intensities of extravasated FITC-dextran from whole retina tissues (n=6 per group) using the FV-300 software.
Diabetic mice were intravitreally injected with a monoclonal VEGF antibody (100 μg/ml), N-acetyl-cysteine (81.5 mg/ml), or Trolox (125 μg/ml) into one eye, and an equal volume of PBS was injected into the contralateral eye (n=6 per group). Twenty four hrs post-injection, retinal vascular leakage was quantified using fluorescein angiography. For the experiment, mice were injected with 1.25 mg of 500-kDa FITC-dextran (Sigma) into the left ventricle and the dye was allowed to circulate for 5 min. The eyes were enucleated and immediately fixed with 4% paraformaldehyde for 45 min. Retinas were dissected, cut in the Maltese cross-configuration, and flat-mounted onto slide glass before observation using confocal microscopy. Retinal vascular leakage was quantitatively analyzed by determining the intensities of extravasated FITC-dextran from whole retina tissues (n=6 per group) using confocal microscopy (FV-300, Olympus, Tokyo, Japan), and applying the intensity data to the FV-300 software.

HUVECs [2] = assay: VEGF-induced disassembly of VE-cadherin adherens junctions in HUVECs; format: cell-based, human; conditions: for VEGF-induced disassembly of VE-cadherin: HUVECs 90 min, 10 ng/ml VEGF with 0.5 nM C-peptide, 1 mM NAC or 0.5 mM Trolox, n=3
Description: Confluent cell layers (HUVECs) in 6-well plates were incubated with C-peptide or an ROS scavenger for 30 min, and then treated with VEGF for 90 min at 37° C. The treated cells were rinsed with PBS, and fixed with 3.7% formaldehyde in PBS for 30 min. The cells were permeabilized with 0.2% Triton X-100 in PBS for 30 min, and stained overnight at 4° C. with a monoclonal VE-cadherin antibody (Santa Cruz Biotechnology, Santa Cruz, Calif.) in PBS. Thereafter, the cells were probed with goat anti-mouse FITC (fluorescein isothiocyanate; Sigma, St. Louis, Mo.), followed by visualizing VE-cadherin by confocal microscopy.

HUVECs [3] = assay: VEGF-induced stress fiber formation in HUVECs (rhodamine-phalloidin); format: cell-based, human; conditions: HUVECs 1 hr; 10 ng/ml VEGF with 0.5 nM C-peptide, 1 mM NAC or 0.5 mM Trolox; n=3
Description: HUVECs were grown on gelatin-coated round coverslips in 12-well culture plates, […], alone or in combination, or with 10 ng/ml VEGF in the presence of an ROS scavenger, that is, 1 mM NAC or 0.5 mM Trolox for 1 hr at 37° C. The cells were rapidly rinsed with PBS and fixed with 3.7% formaldehyde in PBS for 30 min. Then, the cells were permeabilized with 0.2% Triton X-100 in PBS for 30 min, and stained with rhodamine-palloidin (Molecular Probes) in PBS for 1 h. The resulting stained cells were mounted on a glass slide using a mounting solution, followed by visualizing actin filaments by confocal microscopy.

HUVECs [4] = assay: VEGF-induced intracellular ROS generation in HUVECs; format: cell-based, human; conditions: for VEGF-induced intracellular ROS generation: HUVECs pre-incubated 30 min with 1 mM NAC, 0.5 mM Trolox or 5 μM BAPTA-AM, 10 ng/ml VEGF 10 min
Description: HUVECs were isolated from the human umbilical cord vein according to a well known process, and cells from passages 3 to 6 were used in the following experiments. Cells were inoculated into M199 culture media (supplemented with 20% FBS, 3 ng/ml bFGF, 5 U/ml heparin, 100 U/ml penicillin, and 100 μg/ml streptomycin) in 2% gelatin-coated coverslips, dishes, or plates, and grown at 37° C. in a humidified 5% CO2 incubator.
For experiments, cells were incubated for 6 h in low-serum medium (M199 supplemented as above, but with only 1% FBS), and treated for a suitable time with 10 ng/ml VEGF in the presence or absence of various concentrations of C-peptide.
In detail, HUVECs inoculated into coverslips were treated with VEGF and C-peptide, and incubated with 10 μM 2′,7′-dichlorodihydrofluorescein diacetate (Molecular Probes, Eugene, Oreg.) in phenol red-free media for the last 10 min. The coverslips were mounted on a perfusion chamber, and labeled cells were rapidly scanned by confocal microscopy. The level of intracellular ROS was determined by comparing the fluorescence intensities of treated cells with those of control cells, and expressing this as a fold difference.

HUVECs [5] = assay: Intracellular Ca2+ levels in HUVECs (Fluo-4 AM); format: cell-based, human; conditions: HUVECs labeled with 1 μM Fluo-4 AM; for effect on VEGF-induced changes in intracellular Ca2+: n=3
Description: To monitor intracellular Ca^2+ levels, cells inoculated into coverslips were incubated with 1 μM Fluo-4 AM for 30 min. The coverslips were mounted on perfusion chambers and scanned every 10 sec by confocal microscopy (FV-300). Serial images from the scan were processed to analyze changes in intracellular Ca^2+ levels at the single-cell level. Data were expressed as the relative fluorescence intensity (RFI).

[6] = system: skin of streptozotocin diabetic mice; assay: Miles vascular permeability assay in skin of streptozotocin diabetic mice; format: in vivo
Description: A Miles vascular permeability assay was performed in diabetic mice as follows. After 2 to 3 days post-shaving, mice were anesthetized and intravenously injected with 150 μl of a 1% Evans blue solution. After 15 min, 15 μl of a VEGF (10 ng) solution containing 0, 7.5, or 15 ng of C-peptide was injected intradermally into the shaved skin of the mice (n=12 per group). PBS was injected for the control (n=12). An area of skin that included the blue spot resulting from leakage of the dye was dissected, and the Evans blue dye was eluted from the dissected skin by incubation with formamide at 56° C. for 2 days. The amount of dye was quantitated by spectrophotometry at 620 nm.

FIG. 6A = assay: FIG. 6A
Text: Table printed on a drawing sheet, FIG. 6A
Footnotes: Data are means ± S.D. / ***p<0.001 vs. control mice.
FIG. 6D is a graph in which serum C-peptide levels are plotted against time after intravitreal injection; and
First reader's note: Each column is a mouse group; the cells give mean ± S.D. of the serum C-peptide level.

[7] = C-peptide levels in the vitreous fluid after intravitreal injection; format: in vivo, mice; conditions: mouse, 7.5 ng, after intravitreal injection of 2 μl C-peptide (3.7 μg/ml), maintained for 12 hrs, physiological range, read-out: C-peptide concentrations in the vitreous chamber
Description: After intravitreal injection, C-peptide levels in the vitreous fluid were monitored with time. In this regard, C-peptide was intravitreally injected at a dose of 7.5 ng, after which C-peptide in the vitreous chamber was quantitated using a human C-peptide ELISA kit (Millipore Co. Billerica, Mass.) (n=4).

[8] = Serum C-peptide levels during subcutaneous mini-osmotic pump delivery; format: in vivo; conditions: diabetic mice, 35 pmol/min/kg, n=7
Description: After implantation of a mini-osmotic pump for delivering C-peptide, blood c-peptide levels were measured. One group of diabetic mice (n=7) was subcutaneously implanted with ALZET® mini-osmotic pump 2004 (DURECT, Cupertino, Calif.) containing C-peptide in PBS with a delivery rate of 35 pmol/min/kg. The other diabetic (n=7) and control groups (n=7) underwent sham operations. During the continuous subcutaneous C-peptide perfusion, serum C-peptide levels were measured using a C-peptide Enzyme Immunoassay Kit (RayBiotech, Norcross, Ga.).

[9] = system: microvessels of the diabetic mouse retina; assay: Disassembly of adherens junctions (VE-cadherin) in retina of diabetic mice; format: in vivo; conditions: intravitreal 2 μl C-peptide, n=3
Description: Diabetic mice were intravitreally injected with 2 μl C-peptide into one eye (Diabetic+C-Pep) and an equal volume of PBS into the contralateral eye (Diabetic, n=3). Normal (non-diabetic) mice also were intravitreally injected with 2 μl PBS into eyes (Normal, n=3).
VE-cadherin was stained in the retina and visualized using confocal microscopy as described below.
Microvessels were stained for VE-cadherin in retinal whole mounts. In detail, isolated retinas were fixed in 100% ethanol for 30 min, delipidated in 100% ice-cold acetone for 10 min, and permeabilized with 0.3% Triton X-100 for 1 hr. The retinas were incubated with an anti-VE-cadherin antibody (Enzo Life Sciences, Farmingdale, N.Y., USA) at 4° C. for 24 hrs, and probed with goat anti-mouse FITC (Sigma) at 4° C. for 24 hrs, followed by visualizing VE-cadherin by confocal microscopy (FV-300, Olympus).

Serum C-peptide (nM) (4 weeks after C-peptide delivery) (FIG. 6A)	Serum C-peptide (nM) (at 1 week of diabetes induction) (FIG. 6A)	level at time molar [7] [nM]	serum C-peptide level [8]	Compound	retinal microvascular leakage (extravasation of FITC-dextran) in diabetic mice [1]	VEGF-induced disassembly of VE-cadherin (HUVECs [2])	VEGF-induced stress fiber formation (HUVECs [3])	VEGF-induced intracellular ROS generation (HUVECs [4])	effect on VEGF-induced changes in intracellular Ca2+ (HUVECs [5])	extravasation of FITC-dextran (vascular leakage) in the retinas of diabetic mice ([1]; intravitreal 2 μl C-peptide (3.7 μg/ml), 24 hrs post injection, vs PBS contralateral eye, n=6, p<0.05)	VEGF-induced vascular permeability (Evans blue leakage) in skin ([6]; intradermal VEGF (10 ng) with 7.5 or 15 ng C-peptide, dose-dependent, n=12, p<0.01)	vascular permeability with C-peptide alone ([6]; intradermal, no VEGF)	effect of substance alone on intracellular Ca2+ (HUVECs [5]; no VEGF)	VEGF-induced decrease in the fluorescence intensity of the adherens junctions (HUVECs [2]; HUVECs, VE-cadherin histograms (RFI), FIG. 4B)	concentration at which complete prevention of VEGF-induced ROS generation was observed (HUVECs [4]; HUVECs pre-treated 30 min, 10 ng/ml VEGF) [nM]	VEGF-induced generation of intracellular ROS (HUVECs [4]; HUVECs pre-treated with various concentrations of C-peptide 30 min, 10 ng/ml VEGF, dose-dependent)	diabetes-induced disassembly of adherens junctions in retinal microvessels [9]
–	–	–	–	Cc1c(C)c2c(c(C)c1O)CCC(C)(C(=O)O)O2 (centres unmarked) [Trolox, reference compound]	prevented	prevented	inhibited	abolished	–	–	–	–	–	–	–	–	–
–	–	–	–	CC(=O)OCOC(=O)CN(CC(=O)OCOC(C)=O)c1ccccc1OCCOc1ccccc1N(CC(=O)OCOC(C)=O)CC(=O)OCOC(C)=O [BAPTA-AM, 1,2-bis(2-aminophenoxy)ethane-N,N,N-′,N′-tetraacetic acid tetrakis(acetoxymethyl ester), reference compound]	–	–	–	blocked	blocked	–	–	–	–	–	–	–	–
1.50 ± 0.89 nM and 2.40 ± 0.93 nM	1.44 ± 0.53	0.9 to 2	elevated to a normal value	CC(C)C[C@H](NC(=O)[C@H](C)NC(=O)[C@H](CC(C)C)NC(=O)[C@@H]1CCCN1C(=O)[C@H](CCC(N)=O)NC(=O)[C@H](CC(C)C)NC(=O)[C@H](CO)NC(=O)CNC(=O)[C@H](C)NC(=O)CNC(=O)[C@@H]1CCCN1C(=O)CNC(=O)CNC(=O)CNC(=O)[C@H](CC(C)C)NC(=O)[C@H](CCC(=O)O)NC(=O)[C@@H](NC(=O)[C@H](CCC(N)=O)NC(=O)CNC(=O)[C@@H](NC(=O)[C@H](CCC(N)=O)NC(=O)[C@H](CC(C)C)NC(=O)[C@H](CC(=O)O)NC(=O)[C@H](CCC(=O)O)NC(=O)[C@H](C)NC(=O)[C@@H](N)CCC(=O)O)C(C)C)C(C)C)C(=O)N[C@@H](CCC(=O)O)C(=O)NCC(=O)N[C@@H](CO)C(=O)N[C@@H](CC(C)C)C(=O)N[C@@H](CCC(N)=O)C(=O)O [C-peptide]	blocked	inhibited	sufficiently suppressed	–	had no effect	blocked	suppressed	did not cause a significant change	did not increase	recovered	0.5	inhibited	inhibited
–	–	–	–	CC(=O)N[C@@H](CS)C(=O)O [NAC, N-acetyl-L-cysteine, reference compound]	prevented	prevented	inhibited	abolished	–	–	–	–	–	–	–	–	–
